The source of these data is PMC9065348 (Frontiers in Pharmacology, 2022).

The target of one data set is CYP3A4 (Homo sapiens, UniProt P08684). The note with it: Human liver microsomes, cited from earlier work.
Data set [1] has as its target T1, CYP2C9 (Homo sapiens, UniProt P11712).
T1 construct: respectively, were mixed with human liver microsomes; tissue In Vitro Technologies (Noble Park North, VIC, Australia); host or cells: human liver microsomes
The note with it: Human liver microsomes, cited from earlier work.

Data set [2] has as its system hypertension rat model established by L-NAME. The data set can be described thus: Antihypertensive efficacy (tail artery blood pressure) in L-NAME hypertension rat model. Format: in vivo, Wistar rats. The procedure:
A total of 48 Wistar rats were treated with L-NAME (60 mg/kg·d^-1) intragastrically for 4 weeks ([[…] al., 2003]; [[…] et al., 2002]; [Ahad et al., 2020a]). Systolic blood pressure (SBP) ≥140 mmHg was considered to be a successful hypertension model and was used to maintain L-NAME treatment until animal death. The blood pressure measurement method was performed as described in previous literature studies and the blood pressure of each rat was determined by the average of 5 measurements by a non-invasive rat tail sphygmomanometer (BP-2006A, Beijing Softron Biotechnology Co., Ltd.) ([Gillis et al., 2020]; [Dias et al., 2021]). This experimental protocol was approved by the Animal Care and Use Committee of Shanghai University of Traditional Chinese Medicine. A total of 36 hypertensive rats and 6 normal rats were included in this experiment. […] A total of 6 normal rats were assigned to a blank group without any treatment. Following the treatment of the rats for 2 weeks, the blood pressure of their tail artery was measured.

Data set [3] is described as follows: Pharmacokinetics of LOS and EXP3174 in the hypertension rat model (LC-MS). Format: in vivo, Wistar rats. Particulars: hypertensive rats (L-NAME); for AUC(0-inf) / AUC(0-t) / Cmax / MRT / Tmax / half-life: Wistar, rat, plasma, po, 10 mg/kg/day. The procedure:
All samples were centrifuged at 3,000 rpm for 10 min, and the upper plasma was collected for Liquid Chromatography Mass Spectrometry (LC-MS) analysis. The LOS and EXP3174 in rat serum were quantitatively determined by a validated LC-MS method. The LC-MS system contained a Q/Exactive Quadrupole/Electrostatic Field Track Well High Resolution Mass Spectrometer (Thermo Fisher Scientific, Waltham, MA, United States) and a Dionex Ultimate 3,000 High-pressure liquid chromatography (Dionex, Subsidiary, CA, United States) system equipped with an electro-spray ionization source. […] The mobile phase included 0.1% formic acid aqueous solution (C) and acetonitrile (D) at a flow rate of 0.3 ml/min. The proportion of phase B in the mobile phase was adjusted from 40 to 5% at 0-2 min, 5% at 2-4 min, 40% at 4-5 min. The parameters of mass spectrometry for each analyte were shown in Supplementary Figure S1 . The collected data were analyzed through Xcalibur 4.1 software. The serum drug concentration data in each sample were obtained by calculation. The pharmacokinetic parameters corresponding to each rat were calculated using the “non-compartmental model” of the “PK solution 2.0TM (Summit Research Services, United States)” pharmacokinetic software. The half-life (t 1/2 ), peak drug concentration (C max), peak time (T max), the area under the plasma concentration-time curve (AUC) from time zero to the time of the last measurable plasma concentration (AUC 0-t ), AUC from time zero to infinity (AUC 0-∞ ), mean residence time (MRT), clearance (CL), apparent volume of distribution (V d ), and relative bioavailability (Frel) were calculated.

A short description of data set [4]: Pharmacokinetics of LOS and EXP3174 in non-hypertensive Wistar rats (LC-MS). It counts as in vivo. The note with it: Wistar rats without L-NAME. The procedure:
All groups were treated for 2 weeks and the blood collection time and methods of serum management were the same as those mentioned above. The LOS and EXP3174 in rat serum were quantitatively determined by a validated LC-MS method. The LC-MS system contained a Q/Exactive Quadrupole/Electrostatic Field Track Well High Resolution Mass Spectrometer (Thermo Fisher Scientific, Waltham, MA, United States) and a Dionex Ultimate 3,000 High-pressure liquid chromatography (Dionex, Subsidiary, CA, United States) system equipped with an electro-spray ionization source. […] The mobile phase included 0.1% formic acid aqueous solution (C) and acetonitrile (D) at a flow rate of 0.3 ml/min. The proportion of phase B in the mobile phase was adjusted from 40 to 5% at 0–2 min, 5% at 2–4 min, 40% at 4–5 min. The parameters of mass spectrometry for each analyte were shown in Supplementary Figure S1 . The collected data were analyzed through Xcalibur 4.1 software. The serum drug concentration data in each sample were obtained by calculation. The pharmacokinetic parameters corresponding to each rat were calculated using the “non-compartmental model” of the “PK solution 2.0TM (Summit Research Services, United States)” pharmacokinetic software. The half-life (t 1/2 ), peak drug concentration (C max), peak time (T max), the area under the plasma concentration-time curve (AUC) from time zero to the time of the last measurable plasma concentration (AUC 0-t ), AUC from time zero to infinity (AUC 0-∞ ), mean residence time (MRT), clearance (CL), apparent volume of distribution (V d ), and relative bioavailability (Frel) were calculated.

The test system of data set [5] is CYP2C9. The data set is described as follows: Western blot of rat liver tissue, CYP2C9 protein expression. The note with it: liver of hypertensive rats; comparison between all groups; p > 0.05. Format: in vivo. The text has this:
The immunoreactive bands were detected by chemiluminescence.
In general terms: In western blotting, separated proteins are transferred to a membrane and probed.

In data set [6] the test system is hypertension rat model established with L-NAME. Set-up: method as in Ahad et al., 2020b. The note with it: within 2 h following 10 mg kg^−1 LOS; rat model after 2 weeks L-NAME; ref Ahad et al., 2020b; cited from earlier work.
The conditions of data set [7]: cited from earlier work.
The mark [8] stands for this setting: 4 weeks of L-NAME 60 mg/kg/d intragastric, model group.
The mark [9] stands for this setting: 6 weeks of continuous L-NAME, model group.
Where [10] appears, read: vs model group, 2 weeks treatment, SMI 6 ml/kg/d tail vein (SMI-H), LOS 10 mg/kg/d intragastric.
Setting [11] is: LOS 10 mg/kg/d ig + SMI 2 ml/kg/d tail vein (SMI-L+LOS group).
The mark [12] stands for this setting: LOS 10 mg/kg/d ig + SMI 4 ml/kg/d tail vein (SMI-M+LOS group).
Where [13] appears, read: LOS 10 mg/kg/d ig + SMI 6 ml/kg/d tail vein (SMI-H+LOS group).
The mark [14] stands for this setting: LOS 10 mg/kg/d ig alone (LOS group).
[15] abbreviates: LOS 10 mg/kg/d ig + SMI 6 ml/kg/d tail vein (BLANK + SMI-H+LOS group).
The mark [16] stands for this setting: LOS 10 mg/kg/d ig alone (BLANK + LOS group).
The mark [17] stands for this setting: rat, serum, po, LOS 10 mg/kg/d ig alone (BLANK + LOS group).

Read-outs that look alike come from different tables or passages of the source.

T1 sequence (P11712 whole entry): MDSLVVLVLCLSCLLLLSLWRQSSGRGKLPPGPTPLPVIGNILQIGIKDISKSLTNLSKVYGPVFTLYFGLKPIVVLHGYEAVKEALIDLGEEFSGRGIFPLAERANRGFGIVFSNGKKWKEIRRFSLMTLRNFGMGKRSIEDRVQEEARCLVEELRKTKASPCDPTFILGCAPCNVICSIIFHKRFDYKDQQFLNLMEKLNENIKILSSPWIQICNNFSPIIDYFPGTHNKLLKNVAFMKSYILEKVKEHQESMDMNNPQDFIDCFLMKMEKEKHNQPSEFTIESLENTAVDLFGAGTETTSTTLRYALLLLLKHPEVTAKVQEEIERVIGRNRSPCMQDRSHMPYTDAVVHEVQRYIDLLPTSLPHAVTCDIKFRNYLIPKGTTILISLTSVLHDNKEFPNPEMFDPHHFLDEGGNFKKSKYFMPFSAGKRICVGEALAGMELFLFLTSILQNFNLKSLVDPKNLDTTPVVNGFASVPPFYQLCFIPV
Sequence of CYP3A4 (P08684 whole entry): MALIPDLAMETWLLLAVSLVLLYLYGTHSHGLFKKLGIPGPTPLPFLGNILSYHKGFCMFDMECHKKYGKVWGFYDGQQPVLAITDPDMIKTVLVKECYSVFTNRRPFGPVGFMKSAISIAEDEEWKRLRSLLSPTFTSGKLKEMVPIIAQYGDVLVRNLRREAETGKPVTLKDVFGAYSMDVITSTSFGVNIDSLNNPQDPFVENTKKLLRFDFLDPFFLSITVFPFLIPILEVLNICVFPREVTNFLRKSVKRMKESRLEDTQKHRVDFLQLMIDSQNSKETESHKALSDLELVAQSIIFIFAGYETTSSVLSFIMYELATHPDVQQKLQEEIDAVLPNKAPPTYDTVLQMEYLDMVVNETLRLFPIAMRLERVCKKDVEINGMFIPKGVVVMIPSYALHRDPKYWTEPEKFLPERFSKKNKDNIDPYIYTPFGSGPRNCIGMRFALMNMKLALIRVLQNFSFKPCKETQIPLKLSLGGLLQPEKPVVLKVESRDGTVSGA

Consider `CC(C)=CCC[C@](C)(O[C@@H]1O[C@H](CO[C@@H]2O[C@H](CO)[C@@H](O)[C@H](O)[C@H]2O)[C@@H](O)[C@H](O)[C@H]1O)[C@H]1CC[C@]2(C)[C@@H]1[C@H](O)C[C@@H]1[C@@]3(C)CC[C@H](O[C@@H]4O[C@H](CO)[C@@H](O)[C@H](O)[C@H]4O[C@@H]4O[C@H](CO)[C@@H](O)[C@H](O)[C@H]4O)C(C)(C)[C@@H]3CC[C@]12C` [Ginsenoside Rb1], for which the “Effects on CYP3A4” value at CYP3A4 (ref Hao et al. (2008)) was “Inhibition”; on CYP3A4 (ref He and Edeki, (2004)), “Inhibition”. For the same compound, the “Effects on CYP2C9” value on CYP2C9 [1] (ref Hao et al. (2008)) is “Inhibition”; at CYP2C9 [1] (ref He and Edeki, (2004)), “Inhibition”.

As for `COC(=O)[C@@H](N)CCCNC(N)=N[N+](=O)[O-]` [L-NAME, N (omega)-nitro-L-arginine methyl ester], in data set [2] (setting [8]), the “increase in DBP” value came out at 34.83 ± 8.82 mmHg, the “increase in MAP” value is recorded as 36.00 ± 6.10 mmHg and the “increase in SBP” value was determined as 37.83 ± 8.52 mmHg. Further, in data set [2] (setting [9]), the “average increase in DBP” value amounted to 42.33 ± 15.34 mmHg, the “average increase in MAP” value is reported as 46.00 ± 13.11 mmHg and the “average increase in SBP” value was 50.50 ± 6.09 mmHg.

One may read the AUC(0-inf) as total exposure, with the tail of the curve extrapolated. What is called AUC(0-t) is exposure summed from dosing to a finite time, without extrapolation to infinity. Broadly, the Cmax is the peak of the concentration-time curve. A word on the MRT: it is the average time that molecules of a dose stay in the body. Usually Tmax stands for the time from dosing to the highest level. One may read the half-life as how long it takes for the measured level to halve. As to `CCCCc1nc(Cl)c(CO)n1Cc1ccc(-c2ccccc2-c2nn[nH]n2)cc1` [LOS, losartan potassium], in data set [2] (setting [10]), the “decrease in DBP” value amounted to 12.14%, the “decrease in MAP” value is on record as 11.92% and the “decrease in SBP” value amounted to 6.32%. In data set [3] (setting [11]), the AUC(0-inf) turned out to be 1210 ng·h/mL, the AUC(0-t) is 1110 ng·h/mL, the highest concentration (Cmax) was 125 ± 53.6 ng/mL and the mean residence time (MRT) came to 8.54 ± 1.8 h. In data set [3] (setting [11]), the Tmax came out at 2.2 ± 0.84 h, the half-life was 6.74 ± 0.64 h, the CL is 27,497.47 ± 14,702.73 ml/h/kg and the Vd is 264,405.76 ± 142,122.69 ml/kg. In data set [3] (setting [12]), the AUC(0-inf) came to 1430 ng·h/mL, the AUC(0-t) worked out at 1250 ng·h/mL, the peak concentration (Cmax) stood at 132 ± 35 ng/mL and the MRT was determined as 11.3 ± 2.22 h. For the same compound, in data set [3] (setting [12]), the time to peak (Tmax) is 1.5 ± 0.55 h, the half-life was 8.41 ± 1.43 h, the CL was 17,964.40 ± 3,185.66 ml/h/kg and the Vd is given as 217,016.60 ± 45,076.20 ml/kg. In data set [3] (setting [13]), the AUC(0-inf) amounted to 1420 ng·h/mL, the AUC(0-t) is 1240 ng·h/mL, the Cmax was 156 ± 64.1 ng/mL and the MRT was 12.1 ± 1.02 h. In data set [3] (setting [13]), the time of peak concentration (Tmax) turned out to be 2.33 ± 0.52 h, the half-life is 9.92 ± 0.96 h, the CL was 19,127.96 ± 5,549.27 ml/h/kg and the Vd was 277,463.55 ± 98,140.99 ml/kg. Also, in data set [3] (setting [14]), the AUC(0-inf) worked out at 841 ± 232 ng·h/mL, the AUC(0-t) was 787 ± 213 ng·h/mL, the Cmax stood at 112 ± 41.7 ng/mL and the MRT worked out at 8.18 ± 0.89 h. Besides, in data set [3] (setting [14]), the time of peak concentration (Tmax) came to 2 ± 0.89 h, the half-life was 6.19 ± 0.43 h, the CL is listed as 32,042.39 ± 10,551.59 ml/h/kg and the Vd is on record as 282,441.65 ± 73,729.85 ml/kg. Besides, in data set [3] (SMI-H + LOS group (SMI 6 ml/kg/d)), the “increase of AUC 0-t compared with LOS group” value was 58.1%. In addition, in data set [4] (setting [15]), the CL is reported as 5,327.27 ± 1,010.94 ml/h/kg and the Vd is given as 67,493.75 ± 17,745.97 ml/kg. Further, in data set [4] (setting [16]), the CL is recorded as 10,392.48 ± 1,296.50 ml/h/kg and the Vd is reported as 90,573.23 ± 13,394.06 ml/kg. In addition, in data set [4] (setting [17]), the total exposure AUC(0-inf) came to 975 ± 121 ng·h/mL, the area under the curve AUC(0-t) turned out to be 911 ± 115 ng·h/mL, the maximum concentration (Cmax) was 108 ± 6.26 ng/mL and the MRT amounted to 8.6 ± 0.54 h. Further, in data set [4] (setting [17]), the time to peak (Tmax) was found to be 1.67 ± 0.52 h and the half-life is 6.03 ± 0.19 h. In addition, the CYP2C9 expression levels entry with CYP2C9 [5] is given as “no significant differences”. In addition, the “decrease in SBP” value in data set [6] is 14.7%. The “increase of AUC 0-t of LOS” value in data set [7] (with Ginkgo leaf tablets, ref Dong et al., 2018) is given as 70%. Further, the “increase of AUC 0-t of LOS” value in data set [7] (with Glimepirea, ref Chen et al., 2015) is on record as 11.18%. Also, the “increase of AUC of LOS” value in data set [7] (with licochalcon A, ref Choi et al., 2013) was 33.38%.

As to `CC(C)=CCC[C@](C)(O[C@@H]1O[C@H](CO)[C@@H](O)[C@H](O)[C@H]1O)[C@H]1CC[C@]2(C)[C@@H]1[C@H](O)C[C@@H]1[C@@]3(C)CC[C@H](O)C(C)(C)[C@@H]3[C@@H](O[C@@H]3O[C@H](CO)[C@@H](O)[C@H](O)[C@H]3O[C@@H]3O[C@@H](C)[C@H](O)[C@@H](O)[C@H]3O)C[C@]12C` [Re, Ginsenoside Re], the “Effects on CYP3A4” value on CYP3A4 (ref Hao et al. (2008)) is “Inhibition”. The “Effects on CYP2C9” value on CYP2C9 [1] (ref Hao et al. (2008)) is on record as “Inhibition”.

In the case of `CC(C)=CCC[C@](C)(O[C@@H]1O[C@H](CO)[C@@H](O)[C@H](O)[C@H]1O)[C@H]1CC[C@]2(C)[C@@H]1[C@H](O)C[C@@H]1[C@@]3(C)CC[C@H](O)C(C)(C)[C@@H]3[C@@H](O[C@@H]3O[C@H](CO)[C@@H](O)[C@H](O)[C@H]3O)C[C@]12C` [Rg1, Ginsenoside Rg1], the “Effects on CYP3A4” value at CYP3A4 (ref Hao et al. (2008)) is reported as “Inhibition”. The “Effects on CYP2C9” value at CYP2C9 [1] (ref Hao et al. (2008)) is on record as “Inhibition”.

As to `COc1cc2c(c(OC)c1OC)-c1c(cc(OC)c(OC)c1OC)C[C@](C)(O)[C@@H](C)C2` [schizandrin], on CYP3A4 (ref Cao et al. (2009)), the “Effects on CYP3A4” value was “Inhibition”.
